Measurements from the supplement of paper PMC10307832.

Each cell line was assayed with O=C(/C=C/c1cccnc1)NCCCCC1CCN(C(=O)c2ccccc2)CC1 [Daporinad] + COc1cc2c(Oc3ccc(NC(=O)C4(C(=O)Nc5ccc(F)cc5)CC4)cc3F)ccnc2cc1OCCCN1CCOCC1 [Foretinib] (partner 0.25 µM) (assay: relative viability (nuclei count vs DMSO), 5 days (fraction); higher = more cells survive). Conditions: first compound 0.001581 µM.
Outline: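 Lung cancer cell lines in 1536-well plates were dosed by pin tool the day after seeding, either with one drug alone or with a fixed anchor-drug dose plus five library-drug doses (not always all listed) in √10 steps. After 5 days, cells were fixed and their nuclei stained in one step (final 0.05% Triton X-100, 1% formaldehyde, 1 ug/ml Hoechst), then counted on 4× images. Relative viability is the nuclei count in treated wells divided by that in vehicle wells. Values are medians of duplicate plates.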
In the case of NCI-H650, the relative viability is reported as 1.09.
In the case of NCI-H1623, the relative viability is reported as 0.754.
NCI-H1563 showed a relative viability of 0.972.
In the case of ABC-1, the relative viability is reported as 1.01.
NCI-H661 gave a relative viability of 1.03.

Same assay, conditions: first compound 0.005 µM
Cell Line NCI-H2342 has a relative viability of 1.01.
With NCI-H838 the relative viability was 0.965.
NCI-H1650 gave a relative viability of 1.13.
Cell Line EBC-1 has a relative viability of 0.0742.
NCI-H1703 gave a relative viability of 0.302.
For NCI-H1993, the relative viability was 0.746.
In the case of NCI-H441, the relative viability is reported as 1.19.
For PC-14, the relative viability was 1.
Work on LCLC-103H yielded a relative viability of 0.884.
With NCI-H596 the relative viability was 0.819.
NCI-H2126 gave a relative viability of 1.06.
In the case of EMC-BAC-2, the relative viability is reported as 0.518.
With NCI-H2085 the relative viability was 1.11.
With Calu-6 the relative viability was 0.772.
Cell Line HCC-366 has a relative viability of 0.972.
NCI-H1666 gave a relative viability of 0.91.
With NCI-H647 the relative viability was 1.06.
LK-2 was tested, and the relative viability was 1.29.
Cell Line NCI-H2087 has a relative viability of 1.19.
Cell Line NCI-H358 has a relative viability of 0.827.
Work on NCI-H2170 yielded a relative viability of 1.05.
Work on H3255 yielded a relative viability of 0.672.
In the case of COR-L23, the relative viability is reported as 1.14.
With COR-L 105 the relative viability was 0.983.
Work on IA-LM yielded a relative viability of 1.29.
LOU-NH91 gave a relative viability of 1.11.
ChaGo-K-1 gave a relative viability of 0.966.
Work on NCI-H1793 yielded a relative viability of 0.956.
With NCI-H2405 the relative viability was 1.13.
Cell Line HOP-62 has a relative viability of 1.1.
A549 showed a relative viability of 0.887.
SK-MES-1 gave a relative viability of 0.916.
LU99A gave a relative viability of 0.796.
Cell Line SW 900 has a relative viability of 0.885.
Work on NCI-H727 yielded a relative viability of 0.899.
For NCI-H1299, the relative viability was 1.14.
NCI-H650 was tested, and the relative viability was 1.01.
Cell Line NCI-H1623 has a relative viability of 0.801.
For NCI-H1563, the relative viability was 0.999.
For ABC-1, the relative viability was 1.01.
NCI-H661 gave a relative viability of 0.671.

Same assay, conditions: first compound 0.01581 µM
With NCI-H2342 the relative viability was 0.969.
In the case of NCI-H838, the relative viability is reported as 0.567.
Work on NCI-H1650 yielded a relative viability of 0.498.
For EBC-1, the relative viability was 0.0756.
In the case of NCI-H1703, the relative viability is reported as 0.282.
NCI-H1993 gave a relative viability of 0.918.
Cell Line NCI-H441 has a relative viability of 0.911.
With PC-14 the relative viability was 1.01.
In the case of LCLC-103H, the relative viability is reported as 0.868.
For NCI-H596, the relative viability was 0.325.
Work on NCI-H2126 yielded a relative viability of 1.34.
With EMC-BAC-2 the relative viability was 0.314.
For NCI-H2085, the relative viability was 0.781.
In the case of Calu-6, the relative viability is reported as 0.35.
Cell Line HCC-366 has a relative viability of 0.959.
Cell Line NCI-H1666 has a relative viability of 0.943.
Work on NCI-H647 yielded a relative viability of 1.28.
LK-2 was tested, and the relative viability was 0.308.
NCI-H2087 gave a relative viability of 0.978.
With NCI-H358 the relative viability was 0.545.
For NCI-H2170, the relative viability was 1.01.
Cell Line H3255 has a relative viability of 0.992.
For COR-L23, the relative viability was 0.282.
COR-L 105 was tested, and the relative viability was 1.14.
With IA-LM the relative viability was 1.26.
LOU-NH91 gave a relative viability of 1.22.
ChaGo-K-1 was tested, and the relative viability was 0.382.
NCI-H1793 showed a relative viability of 0.807.
Cell Line NCI-H2405 has a relative viability of 1.05.
HOP-62 was tested, and the relative viability was 0.639.
